Assay results as given in patent publication US20250295659A1, “METHODS FOR TREATING TRAUMATIC BRAIN INJURY” (The Regents of the University of California, priority 2021, published 2025).
Entries after “also recorded” stand apart in the source; their conditions may differ.

Assays:
[1] = doses for FDA-approved treatments (cancer patients); cited from earlier work
CCI-TBI in rats = assay: Elevated body swing test after CCI-TBI; type: in vivo, rat; conditions: 2 mg/kg i.p. single dose at 0 or 3 hrs post-TBI, 24 hrs after TBI, vs TBI/vehicle, P<0.05
[2] = test system: TBI (moderate lateral fluid percussion) in adult male Sprague-Dawley rats; assay: Morris Water Maze after moderate lateral fluid percussion TBI; type: in vivo, rat; conditions: LFP-TBI, 2 mg/kg i.p. single dose immediately after TBI, days 12 through 16 after TBI, vs TBI/vehicle, P<0.05
Procedure: Moderate Lateral fluid percussion (LFP) was used to produce TBI in adult male Sprague-Dawley rats (weighing 300-350 grams). […] All of the following data were obtained using moderate LFP in adult rats. […] Sham and vehicle control animals received 5% DMSO in 0.9% saline. Morris Water Maze (MWM). Spatial memory was assessed using the MWM on days 12 through 16 after TBI. […] In brief rats were released from one of four starting points and allowed 120 s to find the escape platform. Rats received a total of 4 trials per day, one from each starting point, over 5 consecutive days. Behavioral assessments were performed by an individual blinded to the treatment groups. Mean latency to find the platform was calculated for each day to assess learning as well as the mean swimming speed to assess motor function. Statistical differences were determined using repeated measures ANOVA followed by Dunnett's post hoc test.

[3] = test system: CCI-TBI in rats, ipsilateral hippocampal CA2-3 neurons; assay: NeuN-positive hippocampal CA2-3 neuron counts after CCI-TBI; type: in vivo, rat; conditions: 2 mg/kg single dose at 0, 3 or 6 hrs post-TBI, 24 hrs after TBI, vs TBI/vehicle, P<0.05 or P<0.01
Procedure: Brain sample preparation and immunohistochemistry. Anesthetized rats were perfused with saline followed by 4% PFA at day 1 or day 16. Brain sections (50 μm) are cut at −20° C. and incubated in 0.3% H2O2 for 10 minutes to quench endogenous peroxidase, incubated with 3% horse blocking serum for 20 minutes, and then incubated overnight in primary antibody (mouse anti-NeuN, mature neuron marker, 1:150, Millipore), then in biotinylated secondary antibody (Goat anti-mouse 1:1,000, Vector) for 0.5 h, then placed in Vectastain ABC reagent for 0.5 hr and incubated in peroxidase substrate 3, 3′-diaminobenzidine (DAB) solution for 10 min.
Stereological cell counts. The total number of NeuN-positive neurons in CA2-3 of hippocampus were quantified bilaterally using stereological methods. The NeuN-positive cell counts were performed on a microscope (Nikon E600, Nikon) using commercial software (Stereo Investigator™8.0, Microbrightfield, Inc.). Serial sections cut at 50 μm thick were collected at Bregma −2.80 mm to Bregma −4.16 mm for a total of 10 sections per brain. […] Statistical differences are determined using ANOVA followed by Dunnett's post hoc test.
Methods: One day after controlled cortical impact (CCI)-TBI, rats were anesthetized and transcardially perfused with PBS followed by 4% PFA. […] The NeuN^+ cells in ipsilateral hippocampal CA2-3 were quantified (n=4-8).

c-Kit = c-Kit (Homo sapiens, UniProt P10721); conditions: target kinase c-Kit; cell-free; read-out: IC50 (nm) in vitro; cited from earlier work
Sequence of c-Kit (P10721 26-976): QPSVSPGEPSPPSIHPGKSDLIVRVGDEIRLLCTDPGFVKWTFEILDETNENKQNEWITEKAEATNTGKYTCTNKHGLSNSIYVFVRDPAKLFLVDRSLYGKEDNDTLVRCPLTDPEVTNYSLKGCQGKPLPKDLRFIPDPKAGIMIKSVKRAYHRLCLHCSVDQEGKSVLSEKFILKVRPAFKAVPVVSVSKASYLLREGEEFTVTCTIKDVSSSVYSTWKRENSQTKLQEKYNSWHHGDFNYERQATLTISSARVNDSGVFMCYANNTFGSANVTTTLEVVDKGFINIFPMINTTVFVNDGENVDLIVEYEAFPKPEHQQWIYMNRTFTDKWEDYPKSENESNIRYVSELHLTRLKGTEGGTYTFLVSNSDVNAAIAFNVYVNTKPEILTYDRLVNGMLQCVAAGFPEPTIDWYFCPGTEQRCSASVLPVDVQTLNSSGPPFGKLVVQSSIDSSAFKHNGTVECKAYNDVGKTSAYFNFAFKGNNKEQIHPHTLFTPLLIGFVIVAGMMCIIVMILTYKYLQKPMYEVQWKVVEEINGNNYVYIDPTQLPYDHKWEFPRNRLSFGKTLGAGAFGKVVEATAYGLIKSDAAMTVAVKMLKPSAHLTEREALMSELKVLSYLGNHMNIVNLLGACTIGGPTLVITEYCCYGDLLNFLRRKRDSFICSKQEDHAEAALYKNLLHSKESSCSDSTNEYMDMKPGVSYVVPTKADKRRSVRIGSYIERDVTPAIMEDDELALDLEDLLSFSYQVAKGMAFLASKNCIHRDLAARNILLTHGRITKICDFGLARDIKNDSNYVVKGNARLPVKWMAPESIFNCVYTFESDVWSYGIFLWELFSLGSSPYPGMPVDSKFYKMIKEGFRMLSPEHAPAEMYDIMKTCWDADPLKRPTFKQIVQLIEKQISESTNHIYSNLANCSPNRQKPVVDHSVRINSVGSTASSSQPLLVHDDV

SMILES | Common Side effects when used at the doses for FDA-approved treatments [1] | other results
Cn1cc(-c2cc3c(N4CCN(c5ncc([C@@](C)(N)c6ccc(F)cc6)cn5)CC4)ncnn3c2)cn1 [Avapritinib] | Edema, Nausea, Fatigue, General weakness, Acute confusion, Vomiting, Anorexia,; also recorded: Diarrhea, Hair discoloration, Eye tearing, Acute abdominal pain, Constipation, Skin; also recorded: rash, Dizziness, Anemia, Leukopenia | –
COc1cc(Nc2c(C#N)cnc3cc(OCCCN4CCN(C)CC4)c(OC)cc23)c(Cl)cc1Cl [Bosutinib] | Diarrhea, Nausea, Thrombocytopeniasorder, Vomiting, Kidney disease with; also recorded: reduction in GFR, Skin rash, Anemia, Fever, Fatigue, Neutropenic disorder,; also recorded: Abnormal hepatic function tests, Upper respiratory infection, Lower respiratory; also recorded: infection, General weakness, Anorexia, Pharyngitis, Back pain, Headache disorder,; also recorded: Dizziness, Dyspnea | –
Cc1nc(Nc2ncc(C(=O)Nc3c(C)cccc3Cl)s2)cc(N2CCN(CCO)CC2)n1 [Dasatinib] | Fever, Fatigue, Malaise; also recorded: Infection, Hypophosphatemia, Hypocalcemia, Body fluid retention, Anemia,; also recorded: Thrombocytopenia disorder, Neutropenic disorder, Peripheral neuropathy,; also recorded: Hemorrhage, Upper respiratory infection, Pleural effusions, Stomatitis,; also recorded: Constipation, Gastrointestinal hemorrhage, Pruritus of skin, Arthralgia, Dizziness, | motor imbalance (biased swinging) in elevated body swing test (CCI-TBI in rats): significantly mitigated motor imbalance; also recorded: mitigates motor imbalance; latency to find the platform in the Morris Water Maze (spatial memory) [2]: significantly improved performance; also recorded: reduces spatial memory deficits; survival of NeuN+ CA2-3 neurons in ipsilateral hippocampus [3]: significantly promotes survival of CA2-3 neurons; also recorded: decreases CA2-3 neuronal loss
COc1cc2nccc(Oc3ccc(NC(=O)NC4CC4)c(Cl)c3)c2cc1C(N)=O [Lenvatinib] | – | IC50 (c-Kit): 100 nM
Cc1cn(-c2cc(NC(=O)c3ccc(C)c(Nc4nccc(-c5cccnc5)n4)c3)cc(C(F)(F)F)c2)cn1 [Nilotinib] | Hypocalcemia, Hyponatremia, Back pain, Hyperkalemia, Hypokalemia,; also recorded: Pancytopenia, Anemia, Thrombocytopenia disorder, Leukopenia, Neutropenic; also recorded: disorder, Elevated serum lipase, Hypertension, Prolonged QT interval, Pharyngitis,; also recorded: Constipation, Muscle spasm, Pruritus of skin, Arthralgia, Myalgia, Vertigo | –
Cc1ccc(Nc2nccc(N(C)c3ccc4c(C)n(C)nc4c3)n2)cc1S(N)(=O)=O [Pazopanib] | Nausea, Vomiting, Diarrhea, Thrombocytopenia disorder, Leukopenia, Neutropenic; also recorded: disorder, Alopecia, Hypertension, Fatigue, Hemorrhage, General weakness, Skin; also recorded: rash, Proteinuria, Anorexia, Weight loss, Headache disorder, Hair bleaching, Pain,; also recorded: Myalgia, Thrombotic disorder | –
FC(F)(F)c1ccc(CNc2ccc(Cc3c[nH]c4ncc(Cl)cc34)cn2)cn1 [Pexidartinib] | Blurred vision, decreased appetite, dizziness, fever, headache, itching or skin rash,; also recorded: fast heartbeat, swelling of the feet or lower legs | –
Cc1ccc(C(=O)Nc2ccc(CN3CCN(C)CC3)c(C(F)(F)F)c2)cc1C#Cc1cnc2cccnn12 [Ponatinib] | Thromboembolic disorder, Arterial thrombosis, Hypertension, Thrombocytopenic; also recorded: disorder, Neutropenic disorder, Anemia, Skin rash, Leukopenia, Acute abdominal; also recorded: pain, Fatigue, Headache disorder, Dry skin, Constipation, Arthralgia, Nausea,; also recorded: Fever, Lymphopenia, Bone marrow depression, Diarrhea, Vomiting | –
CNC(=O)c1cc(Oc2ccc(NC(=O)Nc3ccc(Cl)c(C(F)(F)F)c3)c(F)c2)ccn1 [Regorafenib] | Hypertension, Impaired wound healing, General weakness, Fatigue, Anorexia,; also recorded: Palmar-plantar erythrodysesthesia, Diarrhea, Stomatitis, Weight loss, Infection,; also recorded: Voice change, Hemorrhage, Fever, Skin rash, Headache disorder,; also recorded: Hypophosphatemia, Pain, Nausea, Acute abdominal pain, Anemia | –
CCn1c(=O)c(-c2cc(NC(=O)Nc3ccccc3)c(F)cc2Br)cc2cnc(NC)cc21 [Ripretinib] | Alopecia, Fatigue, Nausea, Acute abdominal pain, Constipation, Myalgia, Diarrhea,; also recorded: Anorexia, Palmar-plantar erythrodysesthesia, Vomiting, Elevated serum lipase,; also recorded: Hypophosphatemia | –
CNC(=O)c1cc(Oc2ccc(NC(=O)Nc3ccc(Cl)c(C(F)(F)F)c3)cc2)ccn1 [Sorafenib] | Hypophosphatemia, Anemia, Thrombocytopenia disorder, Leukopenia,; also recorded: Neutropenic disorder, Lymphopenia, Depression, Peripheral neuropathy,; also recorded: Hypertension, Hemorrhage, Stomatitis, Dyspepsia, Constipation, Gastrointestinal; also recorded: hemorrhage, Erectile dysfunction, Eczema, Exfoliative dermatitis, Erythema,; also recorded: Pruritus of skin, Alopecia | –
CCN(CC)CCNC(=O)c1c(C)[nH]c(/C=C2\C(=O)Nc3ccc(F)cc32)c1C [Sunitinib] | Increased risk of bleeding, Pain in extremities, Peripheral edema, Back pain,; also recorded: Hypertension, Chronic heart failure; also recorded: Stomatitis, Dyspepsia, Constipation, Dry skin, Dyschromia, Arthralgia, Headache; also recorded: disorder, Dizziness, Fever, Fatigue, General weakness, Dysgeusia, Skin rash,; also recorded: Anorexia | –
